{
  "source": "ChEMBL document CHEMBL3046922",
  "about": "“Antioomycete activity of gamma-oxocrotonate fatty acids against P. infestans” (J Agric Food Chem, 2009)",
  "key": {"Colletotrichum coccodes [1]": {"tested_on": "Colletotrichum coccodes", "assay": "Fungicidal activity against Colletotrichum coccodes CBS 369.75 assessed as one-day-old mycelial growth inhibition at 1 uM measured every 24 hr by multiwell plate assay", "type": "functional", "details": "CBS 369.75, 24 h, read-out: GI"}, "Phytophthora infestans [2]": {"tested_on": "Phytophthora infestans", "assay": "Antioomycete activity against Phytophthora infestans isolate 208m2 assessed as zoospore germination at 1 uM after 24 hr by light microscopy", "type": "functional"}, "Phytophthora infestans [3]": {"tested_on": "Phytophthora infestans", "assay": "Antioomycete activity against Phytophthora infestans isolate 208m2 assessed as inhibition of zoospore germination at 100 nM after 24 hr by light microscopy", "type": "functional", "details": "isolate 208m2, 24 h"}, "Colletotrichum coccodes [4]": {"tested_on": "Colletotrichum coccodes", "assay": "Fungicidal activity against Colletotrichum coccodes CBS 369.75 assessed as one-day-old mycelial growth inhibition at 100 uM measured every 24 hr by multiwell plate assay", "type": "functional, organism-based"}, "Phytophthora infestans [5]": {"tested_on": "Phytophthora infestans", "assay": "Antioomycete activity against Phytophthora infestans isolate 208m2 expressing GFP assessed as mature (3-weeks-old) mycelial growth inhibition at 1 to 100 uM applied as a drop solution measured after 24 hr by fluorescence stereomicroscopic analysis", "type": "functional, organism-based"}, "Colletotrichum coccodes [6]": {"tested_on": "Colletotrichum coccodes", "assay": "Fungicidal activity against Colletotrichum coccodes CBS 369.75 assessed as one-day-old mycelial growth inhibition at 0.01 uM measured every 24 hr by multiwell plate assay", "type": "functional, organism-based"}, "Phytophthora infestans [7]": {"tested_on": "Phytophthora infestans", "assay": "Antioomycete activity against Phytophthora infestans isolate 208m2 assessed as inhibition of zoospore germination at 10 nM after 24 hr by light microscopy", "type": "functional, organism-based"}, "Phytophthora infestans [8]": {"tested_on": "Phytophthora infestans", "assay": "Antioomycete activity against Phytophthora infestans isolate 208m2 assessed as inhibition of zoospore germination at 3.7 uM after 24 hr by light microscopy", "type": "functional, organism-based"}, "Phytophthora infestans [9]": {"tested_on": "Phytophthora infestans", "assay": "Antioomycete activity against Phytophthora infestans isolate 208m2 expressing GFP assessed as one-day-old mycelial growth inhibition at 1 mM by plate reader analysis", "type": "functional, organism-based"}, "Phytophthora infestans [10]": {"tested_on": "Phytophthora infestans", "assay": "Antioomycete activity against Phytophthora infestans isolate 208m2 assessed as lysis of zoospores at 100 uM after 24 hr by light microscopy", "type": "functional, organism-based"}, "Phytophthora infestans [11]": {"tested_on": "Phytophthora infestans", "assay": "Antioomycete activity against Phytophthora infestans isolate 208m2 assessed as zoospore germtube length at 10 nM to 100 uM after 24 hr by light microscopy", "type": "functional, organism-based"}, "Solanum tuberosum": {"tested_on": "Solanum tuberosum", "assay": "Phytotoxicity against Solanum tuberosum cv. Desiree (potato) leaves at 1000 uM", "type": "organism-based", "details": "in vivo"}, "Phytophthora infestans [12]": {"tested_on": "Phytophthora infestans", "assay": "Antioomycete activity against Phytophthora infestans isolate 208m2 infected potato plants assessed as decrease in fungal biomass at 10 uM applied on the abaxial leaf surface 2 hr prior to zoospore inoculation measured 3 days after fungal challenge by realtime PCR analysis", "type": "functional"}, "Phytophthora infestans [13]": {"tested_on": "Phytophthora infestans", "assay": "Antioomycete activity against Phytophthora infestans isolate 208m2 infected potato plants assessed as decrease in fungal biomass at 100 uM applied on the abaxial leaf surface 2 hr prior to zoospore inoculation measured 3 days after fungal challenge by realtime PCR analysis", "type": "functional"}},
  "note": "Activity calls are given as the source filed them. No cut-off for these calls is given here.",
  "data": [
    {"smiles": "CCCCCCCCCCCCC(=O)/C=C/C(=O)O", "note": "[listing 1 of 2 here]", "values": [
      {"measurement": "inhibition of growth at 1 µM", "setting": "Colletotrichum coccodes [1]", "value": 1.5, "unit": "%"},
      {"measurement": "Activity", "setting": "Phytophthora infestans [2]", "value": "<10", "unit": "%"},
      {"measurement": "inhibition at 0.1 µM", "setting": "Phytophthora infestans [3]", "value": "> 50", "unit": "%"}
    ]},
    {"smiles": "CCCCCCCCCCCCC(=O)/C=C/C(=O)O", "note": "[listing 2 of 2 here]", "values": [
      {"measurement": "growth inhibition (GI)", "setting": "Colletotrichum coccodes [4]", "value": "Active"},
      {"measurement": "growth inhibition (GI)", "setting": "Phytophthora infestans [5]", "value": "Active"},
      {"measurement": "growth inhibition (GI)", "setting": "Colletotrichum coccodes [6]", "value": "Active"},
      {"measurement": "inhibition", "setting": "Phytophthora infestans [7]", "value": "Active"},
      {"measurement": "inhibition", "setting": "Phytophthora infestans [8]", "value": "Active"},
      {"measurement": "growth inhibition (GI)", "setting": "Phytophthora infestans [9]", "value": "Active"},
      {"measurement": "Activity", "setting": "Phytophthora infestans [10]", "value": "Active"},
      {"measurement": "Activity", "setting": "Phytophthora infestans [11]", "value": "Active"}
    ]},
    {"smiles": "CCCCCCCCCCCCC(=O)/C=C/C(=O)[O-].[Na+]", "values": [
      {"measurement": "Activity", "setting": "Solanum tuberosum", "value": "Non-toxic"},
      {"measurement": "inhibition at 10 µM", "setting": "Phytophthora infestans [12]", "value": 80, "unit": "%"},
      {"measurement": "inhibition at 100 µM", "setting": "Phytophthora infestans [13]", "value": 95, "unit": "%"}
    ]}
  ]
}
